Laboratory results as given in US11654292B2 (priority 2017, dated 2023).
Read-outs that look alike come from different tables or passages of the source.

What was measured:
MDA-MB-231 cells [1] = assay: Stimulus intensity-response curve of pulsed magnetic field for cell lysis; assay type: cell-based; details: 500 nM digoxin, PMF stimulus intensity 80 mT (FIG. 1)
Procedure: FIG. 1 Stimulus intensity—response curve to determine the strength of the pulsed magnetic field necessary to produce cell lysis of MDA-MB-231 cells, in vitro (p<0.01).
A study was conducted where cells were pulsed with an increasing stimulus intensity to determine the strength of the pulsed magnetic field necessary to produce cell lysis of MDA-MB-231 cells in vitro. […] All tubes were exposed to a 0 to 80 mT PMF.

[2] = tested on: MCF-10a normal breast epithelial cells; assay: Cell lysis, digoxin with 80 mT pulsed magnetic field in solenoid; assay type: cell-based; details: 100 nM digoxin + 80 mT magnetic pulses at 25 Hz
Description: (§1) Tubes were placed in an 8″1X 2.5″dia. solenoid with 697 turns (500 ft.) of 12 ga copper wire. A 5VDC current from an AE Techron 7224 DC-extended AC amplifier pulsed at 25 Hz, with a 10 msec ramp and fall, controlled by a Techtronics AFG 3021B waveform generator produced 80 mT magnetic pulses in the solenoid.

[3] = tested on: MDA-MB-231 breast cancer cells; assay: as above; assay type: cell-based; details: 100 nM digoxin + 80 mT magnetic pulses at 25 Hz, within 10 min
Description: as §1

MDA-MB-231 xenografts = assay: In vivo TOL (digoxin + PMF) in mice with MDA-MB-231 xenografts; parameters: species or system J/Nu mice
Procedure: This protocol establishes steady-state pharmacokinetics in even poorly vascularized tissues. The mice were exposed to the pulsed magnetic field, using the same parameters as with the cultured cells, for 15 min starting 30 min after the last injection. This treatment was repeated two and four days after the first treatment. Mice were sacrificed and fixed with 4% paraformaldehyde 24 hrs after the third treatment. Tissues from these animals were sectioned and evaluated by a pathologist that was blind to the treatment.

[4] = tested on: mouse breast cancer, 4T1, cells; assay: In vivo TOL (digoxin + PMF) in immune competent mice with 4T1 tumors; parameters: species or system BALBc mice; details: 7 mg/kg digoxin s.c. x5 + PMF 30 min on day 0, 2 and 4 (TOL), FIG. 7
Procedure: FIG. 7A. […] Arrows indicate days of treatment; 7B. […] Thus, the life expectancy of mice treated with TOL exceeds that of controls by approximately 1 week.
This treatment was administered on day 0 (first day of treatment), on day 2 and on day 4. Mice were monitored for tumor growth and were sacrificed when they met the NIH criteria for humane endpoint euthanasia.

MDA-MB-231 cells [5] = assay: Sodium dependence of TOL in Ringer's solution with or without sodium; assay type: cell-based; details: Homo sapiens, MDA-MB-231, 10 min
Procedure: FIG. 2 TOL is dependent on the presence of sodium.
A study was conducted where the culture media containing MDA-MB-231 cells was replaced with Ringer's solution with or without sodium and then stimulated with pulsed magnetic fields of 80 mT for 10 minutes. Cells were transferred to microfuge tubes containing either Ringers +Na^+ or Ringers−Na^+.

MDA-MB-231 cells [6] = assay: Trypan Blue estimate of cell lysis, ouabain with or without pulsed z-gradient magnetic field (MRI); assay type: cell-based
Procedure: Two tubes of MDA-MB-231 cells were prepared. The media in one tube was replaced by media containing 100 nM ouabain to block the sodium pumps. Both tubes were placed in the MRI and offset from center by 317 mm in the z-gradient field and exposed to the pulsed magnetic field. The samples were then repositioned and imaged.
After imaging, the cells in each vial were stained with Trypan Blue to estimate the number of cells that had been lysed by each treatment: (A) magnetic stimulation alone or (B) ouabain and magnetic stimulation. Virtually all of the cells that had only been exposed to pulsed magnet field stimulation were alive (expelled the Trypan Blue stain) and 10-15% of the cells that had been simultaneously treated with ouabain and pulse magnetic field stimulation were dead (appeared shrunken and retained the stain).
In this example, cells were exposed to ouabain for over 60 min during the preparation for the magnetic field stimulation. Because lysis may occur in a small percentage of cells when exposed to ouabain alone, a study was conducted where a vial of cells was exposed to ouabain without pulsed field stimulation for greater than 90 min.
The duration, amplitude and frequency of the pulsed z-gradient field was varied. All targeted osmotic lysis (TOL) vials (ouabain and pulsed magnetic field stimulation) were exposed to 100 nM ouabain for 10 min. Ouabain-treated and normal MDA-MB 231 control vials were exposed to the same pulsed magnetic field and then stained with Trypan Blue to estimate the amount of cell lysis in each tube. Two trials were conducted using the maximum field strength available (289.1689 Amp). The pulsed stimulus for the first of these trials was delivered with a rise time of 10 msec, a 2.5 msec return to baseline and an inter-stimulus interval of 17.5 msec; the stimulus was pulsed with a rise time of 10 msec, a 2.5 msec return to baseline and an inter-stimulus interval of 7.5 msec for the second trial. […]

Question: With `C[C@H]1O[C@@H](O[C@H]2[C@@H](O)C[C@H](O[C@H]3[C@@H](O)C[C@H](O[C@H]4CC[C@@]5(C)[C@H](CC[C@@H]6[C@@H]5C[C@@H](O)[C@]5(C)[C@@H](C7=CC(=O)OC7)CC[C@]65O)C4)O[C@@H]3C)O[C@@H]2C)C[C@H](O)[C@@H]1O` [digoxin] as the compound, how does the cell lysis (MDA-MB-231 cells [1]) read?
Answer: ~100%

Question: And the “cell lysis when stimulated” value [2]?
Answer: Neither digoxin-treated nor untreated MCF-10a cells lysed

Question: And the cells lysed [3]?
Answer: 97.5%

Question: What about the tumor lysis (MDA-MB-231 xenografts; 5 mg/kg digoxin s.c. five times at 1 hr intervals + PMF 15 min, three treatments (TOL)) of the same compound?
Answer: 80-100%

Question: And the “median tumor necrosis score (grade 1-5) vs controls” value (MDA-MB-231 xenografts; 5 mg/kg digoxin s.c. x5 + PMF (TOL), FIG. 4, p<0.05)?
Answer: significantly greater

Question: What about the “tumor histology, drug-only control vs untreated controls” value (MDA-MB-231 xenografts; 5 mg/kg digoxin s.c. x5, no magnetic stimulation) of the same compound?
Answer: did not differ from untreated controls

Question: And the “tumor growth rate vs controls” value (MDA-MB-231 xenografts; TOL (Dig-PMF), FIG. 6)?
Answer: significantly slower

Question: What about the “time to reach humane endpoint euthanasia criteria vs control groups” value [4] of the same compound?
Answer: significantly longer

Question: And the cytotoxicity at 0.5 µM (MDA-MB-231 cells [5]; read-out: non-viable cells, 500 nM digoxin + 80 mT PMF 10 min (Dig-PMF), Ringers +Na+ (FIG. 2))?
Answer: ~70%

Question: And the cytotoxicity at 0.5 µM (MDA-MB-231 cells [5]; read-out: non-viable cells, 500 nM digoxin + 80 mT PMF 10 min (Dig-PMF), Ringers without sodium (FIG. 2))?
Answer: < 20%

Question: Which results are given for `C[C@@H]1O[C@@H](O[C@H]2C[C@@H](O)[C@]3(CO)[C@H]4[C@H](O)C[C@]5(C)[C@@H](C6=CC(=O)OC6)CC[C@]5(O)[C@@H]4CC[C@]3(O)C2)[C@H](O)[C@H](O)[C@H]1O` [ouabain]?
Answer: cell lysis, kill rate (MDA-MB-231 cells [6]; 100 nM ouabain 10 min + pulsed z-gradient field, amplitude 289.1689, inter-pulse interval 7.5 msec (50 Hz)): 80-90%; cells dead (retained Trypan Blue stain) (MDA-MB-231 cells [6]; 100 nM ouabain (over 60 min) + pulsed z-gradient magnetic field 5 min, amplitude 187.5973, inter-stimulus interval 17.5 msec): 10-15%; cells dead (MDA-MB-231 cells [6]; ouabain alone, no pulsed field stimulation, greater than 90 min): Less than 1%
